Where two headings read alike, the source gives them in different places.
How the values were obtained:
wild type (WT) PaSAHase [1] = target: T1, wild type (WT) PaSAHase (Pseudomonas aeruginosa, UniProt Q9I685); assay type: biochemical; settings: WT enzyme; for kcat/KM: 100 mM MeCl, 25 mM HEPES·MeOH pH 7.5, substrate SAH, 293 K, ± SEM
T1 construct: His-tag with TEV site (from vector pMCSG57) (N, cleaved yes); made in house; host or cells: E. coli BL21-CodonPlus(DE3)-RIPL
Description: (§1) Assays for PaSAHase activity in the hydrolytic direction were carried out spectrophotometrically and the rate of L-homocysteine (Hcy) formation was measured by monitoring its reaction with 5,5′-dithiobis(2-nitrobenzoic acid) (DTNB)[21]. Assays were performed in 3 mL volume in a buffer containing 100 mM MeCl (where Me^+ corresponds to Li^+, Na^+, K^+, Rb^+, or Cs^+ ion) and 25 mM HEPES·MeOH pH 7.5, or a buffer containing 100 mM Tris·HCl pH 7.5. For the Q65A mutein, the experiments were conducted in a buffer containing 100 mM KCl and 25 mM HEPES·KOH pH 7.5. The buffers were supplemented with six units of adenosine deaminase, 100 μM DTNB, and 0.32 μM of PaSAHase or its mutein. The reaction was initiated by the addition of S-adenosyl-L-homocysteine (SAH) at a final concentration from 2.5 to 200 μM. The conversion of Hcy to Hcy-TNB was carried out at 293 K. The reaction progress was measured for one minute and monitored at 412 nm using a U-3900H spectrophotometer (Hitachi). Initial velocity parameters were estimated from the linear region of the recorded curve.
(§2) For the inhibition study, PaSAHase (0.35 μM) in a buffer containing 100 mM KCl and 25 mM Tris·HCl pH 7.5 was incubated with Zn^2+ at different concentrations, ranging from 0.165 to 20 μM. The reaction was initiated by the addition of SAH at a final concentration of 85 μM. The enzymatic activity was followed in the hydrolytic direction by monitoring homocysteine formation via its reaction with DNTB to determine the IC50 constant. For the sample without the addition of Zn^2+ ions, 100% activity was assigned. All measurements were performed in duplicates. The experimental data were analyzed with the GraFit 7.0 software (Erithacus) to obtain the kinetic parameters of the enzymatic reactions: substrate affinity (KM), activity (Vmax), as well as catalytic rate (kcat) or IC50 value for inhibition. The IC50-to-Ki converter[61] was applied to calculate the inhibition constant (Ki) for Zn^2+ ions using the noncompetitive model of inhibition.

Q65A PaSAHase [2] = target: T2, Q65A PaSAHase (Pseudomonas aeruginosa, UniProt Q9I685, Q65A); assay type: biochemical; settings: Q65A mutein, 100 mM KCl, 25 mM HEPES·KOH pH 7.5, substrate SAH, 293 K; ± SEM
T2 construct: His-tag with TEV site (from vector pMCSG57) (N, cleaved yes); made in house; host or cells: E. coli BL21-CodonPlus(DE3)-RIPL
Description: as §1, §2

PaSAHase [3] = target: T3, PaSAHase (Pseudomonas aeruginosa, UniProt Q9I685); assay: ITC titration of PaSAHase with metal ions (Zn^2+, K^+); assay type: binding
T3 construct: His-tag with TEV site (from vector pMCSG57) (N, cleaved yes); made in house; host or cells: E. coli BL21-CodonPlus(DE3)-RIPL
T3 sequence (Q9I685 1-469): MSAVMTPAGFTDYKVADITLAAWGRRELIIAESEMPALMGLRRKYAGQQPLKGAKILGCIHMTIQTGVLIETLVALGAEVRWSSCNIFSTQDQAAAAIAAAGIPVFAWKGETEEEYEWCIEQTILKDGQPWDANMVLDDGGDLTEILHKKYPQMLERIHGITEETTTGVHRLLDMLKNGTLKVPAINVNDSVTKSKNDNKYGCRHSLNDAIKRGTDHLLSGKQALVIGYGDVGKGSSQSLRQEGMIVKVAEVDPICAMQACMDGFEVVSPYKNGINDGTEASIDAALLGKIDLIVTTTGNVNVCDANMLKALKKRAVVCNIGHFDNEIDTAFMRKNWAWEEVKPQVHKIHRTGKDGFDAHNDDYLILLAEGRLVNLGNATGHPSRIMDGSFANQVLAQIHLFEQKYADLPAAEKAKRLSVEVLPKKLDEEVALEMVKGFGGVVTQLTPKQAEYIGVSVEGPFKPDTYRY
Description: (§3) ITC measurements were performed at 293 K using a MicroCal iTC200 calorimeter (GE Healthcare). For the adenosine binding studies, the wild type protein was dialyzed against a buffer containing 100 mM MeCl and 25 mM HEPES·MeOH pH 7.5, or an alkali-cation-free buffer containing 100 mM Tris·HCl pH 7.5. The experiment for the Q65A mutein was conducted in a buffer containing 100 mM KCl and 25 mM HEPES·KOH pH 7.5. The final protein concentrations were in the range of 100–120 µM. Adenosine was dissolved in the dialysis buffers to the concentrations of 0.6 to 1.0 mM. The K^+ ion binding study was conducted in 50 mM Tris·HCl pH 7.5 at PaSAHase concentration of 70 μM. The protein was titrated with 1 mM KCl in 50 mM Tris·HCl pH 7.5. The Zn^2+ ion binding study was conducted in a buffer containing 100 mM KCl and 50 mM Tris·HCl pH 7.5 at PaSAHase concentration of 45 μM. The protein was titrated with 2 mM ZnCl2. In all ITC experiments the ligand was injected to the protein solution (300 μL) in 2 µL aliquots until saturation was observed. The protein concentrations were estimated by the Bradford method and are presented for a single PaSAHase subunit. The raw ITC data were analyzed with the ORIGIN 7.0 software (OriginLab) to obtain the thermodynamic parameters of the complexation reactions: stoichiometry (N), dissociation constant (Kd), as well as changes in enthalpy (ΔH) and entropy (ΔS). For sigmoidal titration curves, the one set of sites model was fitted and N was obtained from the experiment. For hyperbolic curves, for which the determination of N is impossible, N was fixed while fitting the same model. All measurements were performed in duplicates.

PaSAHase [4] = target: T3, PaSAHase; assay: Time course of PaSAHase inactivation by 2′-deoxyadenosine (NADH formation, spectrofluorimetric); assay type: biochemical
Description: The measurements were performed at 293 K using an F-7000 spectrofluorotometer (Hitachi) in the volume of 1 mL. Irreversible formation of the reduced form of the cofactor (NADH) was monitored spectrofluorometrically by excitation at 340 nm and measurement of emission at 460 nm, as described previously. The influence of K^+ and Rb^+ ions on the time-dependent inactivation of the enzyme was carried out for 15 μM PaSAHase in a buffer containing 100 mM KCl or RbCl, 25 mM HEPES·KOH or HEPES·RbOH pH 7.5, and 1 mM TCEP·HCl. In the first experiment, the reaction was initiated by the addition of 2′-deoxyadenosine to the final concentration of 5 mM. In the second experiment, the enzyme was incubated for 2 hours with 100 μM adenosine and subsequently 2′-deoxyadenosine was added at a final concentration of 200 μM. After one minute the reaction was monitored for 4000 seconds (first experiment) or until the intensity of fluorescence emission reached a plateau (second experiment). An analogous experiment was carried out to analyze the influence of Zn^2+ cations on the enzyme. […] The cofactor conversion reaction was initiated by the addition of 2′-deoxyadenosine to the final concentration of 5 mM and after one minute was monitored for 5000 seconds.

PaSAHase [5] = target: T3, PaSAHase; assay: Inhibition of PaSAHase by Zn^2+ ions (DTNB assay); assay type: biochemical; settings: 100 mM KCl; for Ki: calculated from IC50 with IC50-to-Ki converter, noncompetitive model, 25 mM Tris·HCl pH 7.5, SAH 85 μM, enzyme 0.35 μM, read-out: inhibitory constant Ki
Description: as §2

wild type (WT) PaSAHase [6] = target: T1, wild type (WT) PaSAHase; assay: ITC titration of wild type PaSAHase with adenosine; assay type: binding; settings: for stoichiometry (N) / ΔH / ΔS / Kd: pH 7.5, 293 K; for Kd: dissociation constant Kd
Description: as §3

Q65A PaSAHase [7] = target: T2, Q65A PaSAHase; assay: ITC titration of Q65A PaSAHase with adenosine; assay type: binding
Description: as §3

human placental SAHase = target: human placental SAHase; design: method as in PMID 17892301; settings: read-out: inhibition constant; cited from earlier work
[8] = target: the molecule itself; assay: SEC; Superdex 200 gel filtration in buffer D (100 mM KCl, 25 mM HEPES-KOH pH 7.5, 1 mM TCEP-HCl), after reconstitution with NAD+
[9] = Q65A, 100 mM K^+, pH 7.5, 293 K

T2 sequence (Q9I685 whole entry Q65A): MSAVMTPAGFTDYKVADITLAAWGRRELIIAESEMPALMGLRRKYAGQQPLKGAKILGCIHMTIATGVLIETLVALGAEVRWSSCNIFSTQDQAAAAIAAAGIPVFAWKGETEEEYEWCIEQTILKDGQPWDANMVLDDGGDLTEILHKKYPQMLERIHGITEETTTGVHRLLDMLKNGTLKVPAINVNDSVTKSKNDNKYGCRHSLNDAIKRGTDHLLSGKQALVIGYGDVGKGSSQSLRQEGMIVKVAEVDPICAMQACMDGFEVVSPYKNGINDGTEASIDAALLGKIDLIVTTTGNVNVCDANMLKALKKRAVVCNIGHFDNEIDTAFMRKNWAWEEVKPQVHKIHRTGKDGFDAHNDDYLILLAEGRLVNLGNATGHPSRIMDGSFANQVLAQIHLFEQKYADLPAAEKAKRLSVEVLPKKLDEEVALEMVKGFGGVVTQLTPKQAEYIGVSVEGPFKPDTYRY

With `[Cs+]` [Cs^+] the kcat/KM (wild type (WT) PaSAHase [1]) was 6668 ± 333 M⁻¹ s⁻¹.

With `[K+]` [K^+] the kcat/KM (Q65A PaSAHase [2]) was 5322 ± 358 M⁻¹ s⁻¹, the kcat/KM (wild type (WT) PaSAHase [1]) was 72502 ± 4858 M⁻¹ s⁻¹ and the “heat effect of ITC titration of ligand- and alkali-metal-free PaSAHase” value (PaSAHase [3]; 50 mM Tris·HCl pH 7.5, 70 μM PaSAHase, titrated with 1 mM KCl) was “No effect other than K^+ dilution heat”.

`[Li+]` [Li^+] showed a kcat/KM (wild type (WT) PaSAHase [1]) of 731 ± 143 M⁻¹ s⁻¹.

Work on `[Na+]` [Na^+] yielded a kcat/KM (wild type (WT) PaSAHase [1]) of 8467 ± 940 M⁻¹ s⁻¹.

With `[Rb+]` [Rb^+] the kcat/KM (wild type (WT) PaSAHase [1]) was 3568 ± 237 M⁻¹ s⁻¹, the mode of inhibition (wild type (WT) PaSAHase [1]; 100 mM RbCl, kinetics with SAH) was “noncompetitive inhibitor” and the “drop of kcat compared with K^+” value (wild type (WT) PaSAHase [1]; relative to kcat in the presence of K^+) was roughly 33 fold. For the same molecule, the “rate of NADH formation compared with K^+” value (PaSAHase [4]; enzyme first incubated with 100 μM adenosine, then 200 μM 2′-deoxyadenosine added, 100 mM RbCl) was “significantly lower”.

In the case of `[Zn+2]` [Zn^2+], the mode of inhibition (PaSAHase [5]; 25 mM Tris·HCl pH 7.5) is reported as “very strong noncompetitive inhibitor”, the Ki (PaSAHase [5]; listed as zinc) is reported as roughly 15 nM and the Ki (PaSAHase [5]) is reported as 15 nM. The “stoichiometry of protein:Zn^2+ binding, per one subunit” value (PaSAHase [3]; 100 mM KCl, 50 mM Tris·HCl pH 7.5, 45 μM enzyme, 2 mM ZnCl2, 293 K) was 0.90 ± 0.06, the Kd (PaSAHase [3]; 100 mM KCl, 50 mM Tris·HCl pH 7.5, 45 μM enzyme, 2 mM ZnCl2, 293 K, read-out: apparent binding constant Kd) was 12700 ± 2900 nM and the “rate of NADH formation” value (PaSAHase [4]; 100 mM KCl, enzyme incubated with adenosine (200 μM) and ZnCl2 (1, 5 or 10 μM), then 5 mM 2′-deoxyadenosine) was “gradually decreased with increasing Zn^2+ concentration”.

With `Nc1ncnc2c1ncn2[C@@H]1O[C@H](CO)[C@@H](O)[C@H]1O` [adenosine] the “stoichiometry (N)” value (wild type (WT) PaSAHase [6]; 100 mM Cs^+) was 0.94 ± 0.02, the ΔH (wild type (WT) PaSAHase [6]; 100 mM Cs^+) was -4.174 ± 0.115 kcal/mol and the ΔS (wild type (WT) PaSAHase [6]; 100 mM Cs^+) was 10.1 cal/mol/°. The “stoichiometry (N)” value (wild type (WT) PaSAHase [6]; 100 mM K^+) was 0.80 ± 0.01, the ΔH (wild type (WT) PaSAHase [6]; 100 mM K^+) was -9.665 ± 0.237 kcal/mol and the ΔS (wild type (WT) PaSAHase [6]; 100 mM K^+) was −5.9 cal/mol/°. For the same molecule, the “stoichiometry (N)” value (wild type (WT) PaSAHase [6]; 100 mM Na^+) was 0.97 ± 0.02, the ΔH (wild type (WT) PaSAHase [6]; 100 mM Na^+) was -3.891 ± 0.114 kcal/mol and the ΔS (wild type (WT) PaSAHase [6]; 100 mM Na^+) was 9.8 cal/mol/°. For the same molecule, the “stoichiometry (N)” value (wild type (WT) PaSAHase [6]; 100 mM Rb^+) was 0.84 ± 0.01, the ΔH (wild type (WT) PaSAHase [6]; 100 mM Rb^+) was -8.935 ± 0.137 kcal/mol and the ΔS (wild type (WT) PaSAHase [6]; 100 mM Rb^+) was −4.2 cal/mol/°. It also gave a Kd (wild type (WT) PaSAHase [6]; 100 mM Cs^+) of 4700 ± 600 nM, a Kd (wild type (WT) PaSAHase [6]; 100 mM K^+) of 1200 ± 200 nM and a Kd (wild type (WT) PaSAHase [6]; 100 mM Na^+) of 8800 ± 1000 nM. For the same molecule, the Kd (wild type (WT) PaSAHase [6]; 100 mM Rb^+) was 1800 ± 200 nM, the “heat effect of ITC titration” value (wild type (WT) PaSAHase [6]; in the absence of any alkali metals or the presence of Li^+ ions) was “immeasurably small” and the Kd (Q65A PaSAHase [7]) was 7300 ± 400 nM. For the same molecule, the “stoichiometry (N)” value (Q65A PaSAHase [7]; [9]) was 0.236 ± 0.004 and the ΔH (Q65A PaSAHase [7]; [9]) was -7.447 ± 0.167 kcal/mol.

In the case of `[Cu+2]` [copper], the Ki (human placental SAHase) is listed as roughly 25 nM.

B1: S-adenosyl-L-homocysteine hydrolase from Pseudomonas aeruginosa (enzyme, Pseudomonas aeruginosa PAO1)
chain: SNAMSAVMTPAGFTDYKVADITLAAWGRRELIIAESEMPALMGLRRKYAGQQPLKGAKILGCIHMTIQTGVLIETLVALGAEVRWSSCNIFSTQDQAAAAIAAAGIPVFAWKGETEEEYEWCIEQTILKDGQPWDANMVLDDGGDLTEILHKKYPQMLERIHGITEETTTGVHRLLDMLKNGTLKVPAINVNDSVTKSKNDNKYGCRHSLNDAIKRGTDHLLSGKQALVIGYGDVGKGSSQSLRQEGMIVKVAEVDPICAMQACMDGFEVVSPYKNGINDGTEASIDAALLGKIDLIVTTTGNVNVCDANMLKALKKRAVVCNIGHFDNEIDTAFMRKNWAWEEVKPQVHKIHRTGKDGFDAHNDDYLILLAEGRLVNLGNATGHPSRIMDGSFANQVLAQIHLFEQKYADLPAAEKAKRLSVEVLPKKLDEEVALEMVKGFGGVVTQLTPKQAEYIGVSVEGPFKPDTYRY
notes: short tripeptide (SNA-) cloning artifact that extends the N-terminus of the purified protein; S-adenosyl-L-homocysteine hydrolase, Pseudomonas aeruginosa PAO1; about 53 kDa by SDS-PAGE; Batches were either Zn2+-containing or freed of Zn2+ with TPEN; The vector pMCSG57 is named, the tag itself is not; also called PaSAHase; SAHase
In the case of B1, the “stoichiometry N” value [8] is reported as 4.
